Experimental findings from ChEMBL document CHEMBL1201862, “PubChem BioAssay data set” (2004) are described below.

The structures appear in SMILES notation. Active and inactive are the calls of the source.

The EC50 is the concentration at which the effect is half-maximal. In general, AC50 refers to the concentration giving half of the maximal activity seen. What is called IC50 is the midpoint of a concentration-inhibition curve. One may read the CC50 as the concentration giving 50% cytotoxicity.

Experiment [1] can be described thus: luciferase reporter signal suppression in cells – H4 neuroglioma cells, luminescence, dose response (AID 1990). The experiment is classed as functional, cell-based. In general terms: A reporter such as luciferase makes a cellular process visible.
Experiment [2] is described as follows: Luminescence Cell-Based Dose Response HTS to Identify Inhibitors of 5'UTR Stem-Loop Driven Prion Protein mRNA Translation in H4 Neuroglioblastoma Cells. [Related pubchem assays: 1827 (Project Summary), 1813 (Primary HTS)]. The experiment is classed as functional.
The target in experiment [3] is T1, Heat shock factor protein 1 (Mus musculus, UniProt P38532).
T1 sequence (P38532 whole entry): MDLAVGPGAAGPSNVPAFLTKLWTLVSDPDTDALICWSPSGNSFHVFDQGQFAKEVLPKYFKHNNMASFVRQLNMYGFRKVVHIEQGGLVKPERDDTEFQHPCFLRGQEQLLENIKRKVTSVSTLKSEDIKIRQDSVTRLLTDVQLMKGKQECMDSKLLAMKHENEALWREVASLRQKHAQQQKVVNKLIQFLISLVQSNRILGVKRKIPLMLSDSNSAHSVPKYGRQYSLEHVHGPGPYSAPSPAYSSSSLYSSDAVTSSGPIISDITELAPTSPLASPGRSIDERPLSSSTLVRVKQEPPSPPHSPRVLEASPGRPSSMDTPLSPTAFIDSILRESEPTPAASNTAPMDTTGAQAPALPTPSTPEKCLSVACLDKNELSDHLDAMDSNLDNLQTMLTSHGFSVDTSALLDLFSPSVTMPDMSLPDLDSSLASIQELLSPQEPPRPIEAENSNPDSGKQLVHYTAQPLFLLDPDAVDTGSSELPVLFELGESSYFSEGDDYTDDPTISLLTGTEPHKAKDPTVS
Put plainly: decrease of HSF1-responsive luciferase luminescence – cell-based, NIH3T3, dose retest, confirmation (AID 2382).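 Further: NIH3T3 fibroblasts with HSF1-driven luciferase reporter stressed by proteasome inhibitor MG132; luminescence from HSF1-driven luciferase expression after 8 hours of MG132 stress.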 The experiment is classed as functional.

Experiment [4] in a line: alpha-synuclein stem-loop luciferase translation blockers – H4 neuroglioma cells, luminescence, confirmation (AID 1988). The experiment is classed as functional, cell-based.
Experiment [5] relates to HEK293. In words: EBV LMP1 TES2 canonical NF-kB signalling blockers – cell-based, HEK293, luciferase, cherry-pick, dose response (AID 588343). The experiment is classed as functional. Particulars: Homo sapiens.
Experiment [6] is described as follows: A549 cell cytotoxicity, dose response, cytotoxicity control, plate reader, cherry-pick, antagonist series (AID 743412). The experiment is classed as functional, cell-based.
Experiment [7] in a line: blockers of bursicon-stimulated LGR2 cAMP reporter – cell-based, HEK293, CRE-luciferase reporter, cherry pick, set 2, dose response (AID 743343).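 Further: transfected cells were stimulated with diluted bursicon conditioned medium after compound addition.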 The experiment is classed as functional.
The nature of experiment [8]: blockade of melanocortin 4 receptor signaling – cell-based, plate reader, cherry pick, counter-screen for LGR2 antagonist project, dose response (AID 743444).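 Further: transfected HEK 293 cells stimulated with alpha-MSH peptide; potency of inhibitors of the alpha-MSH evoked signal.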 The experiment is classed as functional. (In general: A counterscreen serves to expose hits that act by an unwanted route or on another target.)
The nature of experiment [9]: viability loss in HEK293 cells – cell-based, plate reader, cherry-picked samples, cytotoxicity control, dose response (AID 743446). The experiment is classed as functional.
The next experiment has as its target T2, Bcl-2-related protein A1 (Mus musculus, UniProt Q07440).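 Further: confirmatory dose–response counterscreen on Bfl-1, used to check hits from a UBC13 polyubiquitin inhibitor campaign.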
T2 sequence (Q07440 whole entry): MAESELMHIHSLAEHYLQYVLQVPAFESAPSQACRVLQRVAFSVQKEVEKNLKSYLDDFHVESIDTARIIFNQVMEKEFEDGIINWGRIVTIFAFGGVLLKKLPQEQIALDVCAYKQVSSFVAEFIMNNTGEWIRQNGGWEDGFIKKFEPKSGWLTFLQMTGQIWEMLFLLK
The experiment is classed as functional.

Experiment [10] deals with T3, Ubiquitin-conjugating enzyme E2 N (Homo sapiens, UniProt P61088).
T3 sequence (P61088 whole entry): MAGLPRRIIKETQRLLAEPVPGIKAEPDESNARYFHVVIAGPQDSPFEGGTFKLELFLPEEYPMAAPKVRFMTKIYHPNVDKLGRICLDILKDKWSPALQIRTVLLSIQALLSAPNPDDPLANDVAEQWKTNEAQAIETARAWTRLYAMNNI
The experiment is classed as functional.

Experiment [11] has as its target T3, Ubiquitin-conjugating enzyme E2 N. The experiment is classed as functional. This is another data set of the same source.
The target in experiment [12] is T4, RNA-binding protein pos-1 (Caenorhabditis elegans, UniProt G5EF15).
T4 sequence (G5EF15 whole entry): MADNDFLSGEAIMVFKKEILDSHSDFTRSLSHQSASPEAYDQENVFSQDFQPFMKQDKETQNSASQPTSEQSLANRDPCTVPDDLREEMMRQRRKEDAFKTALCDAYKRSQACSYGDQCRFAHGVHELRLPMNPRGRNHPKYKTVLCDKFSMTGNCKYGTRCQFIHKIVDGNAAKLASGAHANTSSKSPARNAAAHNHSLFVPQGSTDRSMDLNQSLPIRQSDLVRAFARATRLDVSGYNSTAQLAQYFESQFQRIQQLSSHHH
In words: disruptors of C. elegans POS-1 RNA interaction – biochemical, fluorescence polarization, dose response (AID 1964).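 Further: purified POS-1 fused to maltose binding protein made in E. coli; potency of compounds blocking POS-1 binding to fluorescent RNA.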

The subject of experiment [13] is Streptococcus sp. 'group A'. Put plainly: Streptococcus pyogenes SK(-)GAS viability under kanamycin – luminescence, BacTiterGlo, confirmation, counter-screen for streptokinase expression inhibitor project, dose response (AID 1900). The experiment is classed as functional, organism-based.
For a further experiment, the system named is Streptococcus. In words: GAS UMAA2166 growth inhibition – luminescence, BacTiterGlo, counter-screen for streptokinase expression inhibitor project, dose response (AID 1915).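 Further: potency for reduction of bacterial viability or growth.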 The experiment is classed as functional, organism-based.
Experiment [14] in a line: THP-1 cell cytotoxicity, dose response, cytotoxicity control for non-replicating M. tuberculosis project (AID 489025). The experiment is classed as functional.
A short description of experiment [15]: Vero E6 cell cytotoxicity, dose response, cytotoxicity control for non-replicating M. tuberculosis project, secondary assay (AID 492998). The experiment is classed as functional, VeroE6. Conditions: Vero C1008.
Experiment [16] has as its target T5, Endoribonuclease toxin MazF (Escherichia coli K-12, UniProt P0AE70).
T5 sequence (P0AE70 whole entry): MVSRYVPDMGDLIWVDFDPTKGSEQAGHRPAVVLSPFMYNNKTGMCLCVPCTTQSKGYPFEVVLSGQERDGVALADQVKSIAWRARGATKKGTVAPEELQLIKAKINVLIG
In words: activation of MazEF endoribonuclease cleavage – biochemical, fluorescence, single-stranded RNA substrate, uHTS hits, dose response (AID 588481). The experiment is classed as functional.

Experiment [17] has as its target T5, Endoribonuclease toxin MazF. Put plainly: substrate-only fluorescence increase artefacts – biochemical, single-stranded RNase substrate, counter-screen for MazEF activator project, dose response (AID 588502). The experiment is classed as functional.
Another experiment is described as follows: cells. The experiment is classed as functional.
The test system of experiment [18] is HEK293. Put plainly: inhibition of NOD1-driven NF-kB reporter – cell-based, luminescence, uHTS, primary screen (AID 1578). The experiment is classed as functional. Conditions: Homo sapiens.
In experiment [19] the test system is HEK293. Put plainly: cells. The experiment is classed as functional, cell-based. Particulars: Homo sapiens.
Experiment [20] relates to HEK293. In words: cells. The experiment is classed as functional, cell-based. Particulars: Homo sapiens. This is another data set of the same source.
Experiment [21] deals with HEK293. In words: NOD2 signaling inhibitors in MDP-stimulated cells, cell-based, uHTS, luminescence (AID 2001). The experiment is classed as functional. Conditions: Homo sapiens.
Another experiment has as its target Trypsin (Sus scrofa, UniProt P00761). In words: trypsin protease activity blockade – biochemical, quenched peptide fluorescence, cherry-pick, selectivity assay for Rce1 protease inhibitor project, dose response (AID 488789).
In another experiment the target is T6, CAAX prenyl protease 2 (Homo sapiens, UniProt Q9Y256).
T6 sequence (Q9Y256 whole entry): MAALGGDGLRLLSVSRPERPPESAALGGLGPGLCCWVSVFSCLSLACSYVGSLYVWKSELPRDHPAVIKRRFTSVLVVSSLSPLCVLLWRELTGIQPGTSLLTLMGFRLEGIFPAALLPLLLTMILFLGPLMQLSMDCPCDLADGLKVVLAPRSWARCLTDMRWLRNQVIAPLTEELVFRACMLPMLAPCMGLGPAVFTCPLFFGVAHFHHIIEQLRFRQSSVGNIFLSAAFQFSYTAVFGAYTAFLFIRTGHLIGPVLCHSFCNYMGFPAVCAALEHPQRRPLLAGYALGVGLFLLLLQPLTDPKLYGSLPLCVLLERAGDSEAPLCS
In words: inhibition of Ras-converting CAAX protease Rce1 – biochemical, yeast membranes, quenched-peptide fluorescence, cherry-pick, dose response (AID 588849).

Sequence of Trypsin (P00761 whole entry): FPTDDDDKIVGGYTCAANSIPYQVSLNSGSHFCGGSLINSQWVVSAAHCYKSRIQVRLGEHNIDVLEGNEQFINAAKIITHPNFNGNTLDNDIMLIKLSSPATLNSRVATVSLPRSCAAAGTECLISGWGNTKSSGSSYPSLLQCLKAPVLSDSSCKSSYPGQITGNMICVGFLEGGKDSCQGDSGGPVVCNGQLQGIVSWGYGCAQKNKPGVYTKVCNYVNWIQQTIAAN

Turning to `COc1cccc(-c2nc3cc(N4CCN(C)CC4)ccc3[nH]2)c1`, the EC50 in [1] is 9.73 µM (inconclusive); in [2], 5.7 µM (active); in experiment [3], < 0.16 µM (active); in experiment [4], 9.34 µM (inconclusive). The half-maximal activity concentration (AC50) in the experiment with HEK293 [5] was 0.857 µM (active); in experiment [6] it was > 52 µM (inactive); in experiment [7], 2.55 µM (active); in experiment [8] it was 1.57 µM (active); in [9] it was > 52 µM (inactive).

Consider `Cc1ccc(C(C(=O)NCC2CCCO2)N(C(=O)c2snc(C(N)=O)c2N)c2ccc3c(c2)OCCO3)cc1` (configuration not stated), for which the IC50 was > 20 µM (inactive) at Bcl-2-related protein A1, 12.6 µM (active) in experiment [10] and 13.1 µM (active) in [11].

Take `CC/C(=C\C=C\[C@@H]1C=C[C@@H]2CCC[C@H]2[C@@H]1C(=O)c1ccc[nH]1)[C@@H]1O[C@@H]([C@@H](C)C(=O)O)CC[C@@H]1C`: the 50% effective concentration (EC50) in [1] was 14.2 µM (active); in experiment [12], > 300 µM (inconclusive); in experiment [13], 0.202 µM (active); in experiment [2] it was 14.4 µM (active); in experiment [4], > 120 µM (not active); in the experiment on Streptococcus, 0.147 µM (active). Also, the cytotoxic concentration (CC50) in experiment [14] was 12.4 µM (active); in experiment [15], 16.5 µM (active).

Consider `Nc1c(C(=O)Nc2ccccc2)sc2nc3c(c(-c4ccco4)c12)CCC3`, for which the concentration giving a half-maximal response (EC50) in experiment [16] was 11.3 µM (active); in experiment [17], > 99 µM (inactive).

For the compound `Cc1cc(Cl)ccc1OCC(=O)NNC(=O)c1cnccn1`, the figures for the CC50 in experiment [14] and in experiment [15] were > 40 µM (active) and 13.7 µM (active), respectively. For the same compound, in the experiment “cells”, the IC50 was 5.5 µM (active).

Regarding `O=C(c1ccc(Cl)cc1)C1CCCN(Cc2ccc3ncccc3c2)C1` (configuration not stated), the concentration giving a half-maximal response (EC50) in the experiment on HEK293 [18] was 4.42 µM (active). Besides, the results for the IC50 in the experiment on HEK293 [19], in the experiment with HEK293 [20] and with HEK293 [21] were 3.92 µM (active), 15.5 µM (active) and 5.78 µM (active), respectively.

On to `COc1ccc(C)c2sc(NC(=O)C3=COCCO3)nc12`, for which the EC50 in experiment [3] is on record as > 195 µM (not active). The AC50 was 18.8 µM (active) on Trypsin and 13.4 µM (active) at CAAX prenyl protease 2.
